Measured values reported in US10800791B2, “Triazole ACC inhibitors and uses thereof” (Gilead Apollo, LLC, priority 2015, dated 2020).
≈ marks a conversion by molar mass, not a printed value. Read-outs that look alike come from different tables or passages of the source.

Tests used:
[1] = target: fungal (fACC2) (UniProt Q00955); conditions: read-out: fACC2 (in vitro ACC2 Inhibition Assay, IC50); Table 2b, additional results; ADP-Glo, 5 nM ACC2, 20 μM ATP, 20 μM acetyl-CoA
[2] = test system: Phytophthora capsici (Pc); test: Growth inhibition assay of fungal pathogens, Pc; type: cell-based; conditions: 48 h
How it was run: (§1)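 Pathogen growth in 17% V8 broth is measured by OD600 at 24 and 48 hours, after blank subtraction, in the presence of compound at 50, 10 and 2 ppm or 2, 0.4 and 0.08 ppm. Inhibition in percent comes from 48-hour readings against the DMSO control.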

[3] = test system: Collectotrichum graminicola (Cg); test: Growth inhibition assay of fungal pathogens, Cg; type: cell-based; conditions: 48 h, growth inhibition at 48 hours vs 2% DMSO control
How it was run: as §1

[4] = test system: Fusarium virguliforme (Fv); test: Growth inhibition assay of fungal pathogens, Fv; type: cell-based; conditions: 48 h
How it was run: as §1

[5] = test system: Fusarium moniliforme (Fm); test: Growth inhibition assay of fungal pathogens, Fm; type: cell-based; conditions: Fusarium verticillioides, 48 h, read-out: Concentration at 90% Inhibition Fm
How it was run: as §1

[6] = test system: Botrtyis cinerea (Bc); test: Growth inhibition assay of fungal pathogens, Bc; type: cell-based; conditions: 48 h, growth inhibition at 48 hours vs 2% DMSO control
How it was run: as §1

[7] = test system: C. parapsilosis; test: Antifungal Activity Assay (broth microtiter MIC), C. parapsilosis; type: cell-based, Candida parapsilosis; conditions: Lodderomyces parapsilosis, ATCC22019, 48 h
How it was run: (§2)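 CLSI M27-A3 broth microdilution in RPMI 1640+MOPS, final inoculum 2.5×10^3 CFU/mL from overnight Sabouraud cultures grown at 35 °C. MIC read visually at 48 h against growth control.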

[8] = target: human (hACC2) (Homo sapiens, UniProt O00763); test: In vitro ACC inhibition assay (ADP-Glo), hACC2; type: biochemical; conditions: Table 2b, additional results, 5 nM ACC2, 20 μM ATP, 20 μM acetyl-CoA
Description: The detailed procedure is as follows. […] 10 μL ADP glo reagent was added. […] 20 μL kinase detection reagent was added.

[9] = test system: C. krusei; test: Antifungal Activity Assay (broth microtiter MIC), C. krusei; type: cell-based, Candida krusei; conditions: Pichia kudriavzevii, ATCC6258, 48 h
How it was run: as §2

[10] = test system: Septoria tritici (St); test: Growth inhibition assay of fungal pathogens, St; type: cell-based; conditions: Zymoseptoria tritici, 48 h, growth inhibition at 48 hours vs 2% DMSO control
How it was run: as §1

[11] = test system: Diplodia maydis (Dm); test: Growth inhibition assay of fungal pathogens, Dm; type: cell-based; conditions: Stenocarpella maydis, 48 h, growth inhibition at 48 hours vs 2% DMSO control
How it was run: as §1

[12] = test system: Rhizoctonia solani (Rs); test: Growth inhibition assay of fungal pathogens, Rs; type: cell-based; conditions: 48 h
[13] = test system: C. albicans; test: Antifungal Activity Assay (broth microtiter MIC), C. albicans; type: cell-based, Candida albicans; conditions: Candida albicans, ATCC90028, 48 h
How it was run: as §2

[14] = read-out: Concentration at 90% Inhibition Pc, Phytophthora capsici, growth inhibition at 48 hours vs 2% DMSO control
[15] = read-out: Concentration at 90% Inhibition Cg, Collectotrichum graminicola
[16] = read-out: Concentration at 90% Inhibition Fv, Fusarium virguliforme, growth inhibition at 48 hours vs 2% DMSO control
[17] = read-out: Concentration at 90% Inhibition Bc, Botrtyis cinerea
[18] = read-out: MIC, C. parapsilosis ATCC 22019, Table 3b (additional results), 3 replicates, MIC recorded at 48 h
[19] = read-out: MIC, C. krusei ATCC 6258, Table 3b (additional results), 3 replicates, MIC recorded at 48 h
[20] = read-out: Concentration at 90% Inhibition St, Septoria tritici
[21] = read-out: Concentration at 90% Inhibition Dm, Diplodia maydis
[22] = read-out: Concentration at 90% Inhibition Rs, Rhizoctonia solani, mycelial plugs, growth inhibition at 48 hours vs 2% DMSO control
[23] = read-out: MIC, C. albicans ATCC 90028, Table 3b (additional results), 3 replicates, MIC recorded at 48 h
[24] = growth inhibition at 48 hours vs 2% DMSO control, read-out: Concentration at 90% Inhibition Pc
[25] = Collectotrichum graminicola, read-out: Concentration at 90% Inhibition Cg
[26] = growth inhibition at 48 hours vs 2% DMSO control, read-out: Concentration at 90% Inhibition Fv
[27] = Fusarium moniliforme, growth inhibition at 48 hours vs 2% DMSO control
[28] = Botrtyis cinerea, read-out: Concentration at 90% Inhibition Bc
[29] = Table 3b (additional results), ATCC 22019, 3 replicates, MIC recorded at 48 h, read-out: MIC, C. parapsilosis ATCC 22019
[30] = Table 3b (additional results), ATCC 6258, 3 replicates, MIC recorded at 48 h, read-out: MIC, C. krusei ATCC 6258
[31] = Septoria tritici, read-out: Concentration at 90% Inhibition St
[32] = Diplodia maydis, read-out: Concentration at 90% Inhibition Dm
[33] = mycelial plugs, growth inhibition at 48 hours vs 2% DMSO control, read-out: Concentration at 90% Inhibition Rs
[34] = Table 3b (additional results), ATCC 90028, 3 replicates, MIC recorded at 48 h, read-out: MIC, C. albicans ATCC 90028

Chain of human (hACC2) (O00763 whole entry): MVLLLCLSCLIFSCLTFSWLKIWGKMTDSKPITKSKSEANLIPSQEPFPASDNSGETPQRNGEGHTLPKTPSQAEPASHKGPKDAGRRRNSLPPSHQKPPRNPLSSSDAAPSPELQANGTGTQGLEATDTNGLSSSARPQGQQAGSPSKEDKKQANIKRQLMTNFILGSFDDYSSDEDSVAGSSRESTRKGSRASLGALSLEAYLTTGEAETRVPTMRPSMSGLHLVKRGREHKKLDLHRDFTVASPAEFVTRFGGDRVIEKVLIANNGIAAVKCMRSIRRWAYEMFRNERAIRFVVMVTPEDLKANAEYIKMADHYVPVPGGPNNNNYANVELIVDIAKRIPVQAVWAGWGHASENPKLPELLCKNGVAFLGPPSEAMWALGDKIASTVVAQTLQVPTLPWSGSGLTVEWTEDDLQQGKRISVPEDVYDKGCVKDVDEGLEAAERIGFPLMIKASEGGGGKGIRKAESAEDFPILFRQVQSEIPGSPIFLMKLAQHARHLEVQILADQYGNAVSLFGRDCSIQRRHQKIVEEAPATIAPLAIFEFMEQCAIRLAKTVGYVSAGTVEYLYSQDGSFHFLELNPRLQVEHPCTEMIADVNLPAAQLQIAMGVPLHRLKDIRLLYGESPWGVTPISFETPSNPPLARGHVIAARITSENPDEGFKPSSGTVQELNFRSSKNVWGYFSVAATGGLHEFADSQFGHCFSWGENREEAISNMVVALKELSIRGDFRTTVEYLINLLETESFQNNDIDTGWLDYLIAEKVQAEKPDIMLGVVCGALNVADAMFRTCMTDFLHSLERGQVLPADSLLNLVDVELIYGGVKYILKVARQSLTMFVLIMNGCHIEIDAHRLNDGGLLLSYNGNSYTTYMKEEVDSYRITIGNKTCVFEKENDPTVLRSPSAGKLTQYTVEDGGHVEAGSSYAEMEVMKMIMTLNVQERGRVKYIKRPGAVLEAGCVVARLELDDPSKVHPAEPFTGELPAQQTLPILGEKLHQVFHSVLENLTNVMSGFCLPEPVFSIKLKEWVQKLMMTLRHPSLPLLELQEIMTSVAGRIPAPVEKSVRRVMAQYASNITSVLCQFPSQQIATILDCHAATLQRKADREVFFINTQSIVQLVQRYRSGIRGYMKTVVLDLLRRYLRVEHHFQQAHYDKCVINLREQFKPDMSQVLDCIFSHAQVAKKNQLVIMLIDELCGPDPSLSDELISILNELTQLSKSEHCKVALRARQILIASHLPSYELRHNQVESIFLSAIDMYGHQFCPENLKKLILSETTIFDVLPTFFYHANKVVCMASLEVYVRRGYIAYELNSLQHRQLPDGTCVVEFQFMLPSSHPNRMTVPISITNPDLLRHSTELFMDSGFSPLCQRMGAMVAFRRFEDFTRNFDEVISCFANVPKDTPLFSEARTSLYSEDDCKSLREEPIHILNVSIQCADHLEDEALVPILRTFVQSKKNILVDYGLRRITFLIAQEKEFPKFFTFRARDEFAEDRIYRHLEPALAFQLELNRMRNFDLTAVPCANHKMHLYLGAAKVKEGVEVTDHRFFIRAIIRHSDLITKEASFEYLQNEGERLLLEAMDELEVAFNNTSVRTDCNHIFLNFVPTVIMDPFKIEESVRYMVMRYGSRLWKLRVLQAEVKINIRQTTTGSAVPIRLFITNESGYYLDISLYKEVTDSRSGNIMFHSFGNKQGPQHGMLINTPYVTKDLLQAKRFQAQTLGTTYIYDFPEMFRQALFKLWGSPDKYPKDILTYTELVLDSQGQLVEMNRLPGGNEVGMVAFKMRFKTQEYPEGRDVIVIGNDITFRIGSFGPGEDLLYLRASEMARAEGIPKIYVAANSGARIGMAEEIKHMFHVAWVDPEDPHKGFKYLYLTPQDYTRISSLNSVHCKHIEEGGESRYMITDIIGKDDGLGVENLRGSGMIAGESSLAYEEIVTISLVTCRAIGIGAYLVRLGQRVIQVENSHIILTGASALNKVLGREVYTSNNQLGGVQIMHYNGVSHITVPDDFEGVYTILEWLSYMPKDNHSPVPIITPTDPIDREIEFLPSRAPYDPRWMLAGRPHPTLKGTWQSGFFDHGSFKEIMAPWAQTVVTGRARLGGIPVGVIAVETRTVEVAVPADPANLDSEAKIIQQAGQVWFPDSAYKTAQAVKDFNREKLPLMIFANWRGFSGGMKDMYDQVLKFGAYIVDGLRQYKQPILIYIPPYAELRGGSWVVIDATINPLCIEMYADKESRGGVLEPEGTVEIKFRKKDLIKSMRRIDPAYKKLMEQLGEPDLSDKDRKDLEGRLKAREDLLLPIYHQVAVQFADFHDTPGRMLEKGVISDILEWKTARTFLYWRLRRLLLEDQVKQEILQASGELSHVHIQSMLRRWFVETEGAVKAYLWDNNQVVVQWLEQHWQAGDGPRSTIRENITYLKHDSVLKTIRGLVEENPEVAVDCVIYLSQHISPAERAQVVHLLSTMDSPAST
Chain of fungal (fACC2) (Q00955 whole entry): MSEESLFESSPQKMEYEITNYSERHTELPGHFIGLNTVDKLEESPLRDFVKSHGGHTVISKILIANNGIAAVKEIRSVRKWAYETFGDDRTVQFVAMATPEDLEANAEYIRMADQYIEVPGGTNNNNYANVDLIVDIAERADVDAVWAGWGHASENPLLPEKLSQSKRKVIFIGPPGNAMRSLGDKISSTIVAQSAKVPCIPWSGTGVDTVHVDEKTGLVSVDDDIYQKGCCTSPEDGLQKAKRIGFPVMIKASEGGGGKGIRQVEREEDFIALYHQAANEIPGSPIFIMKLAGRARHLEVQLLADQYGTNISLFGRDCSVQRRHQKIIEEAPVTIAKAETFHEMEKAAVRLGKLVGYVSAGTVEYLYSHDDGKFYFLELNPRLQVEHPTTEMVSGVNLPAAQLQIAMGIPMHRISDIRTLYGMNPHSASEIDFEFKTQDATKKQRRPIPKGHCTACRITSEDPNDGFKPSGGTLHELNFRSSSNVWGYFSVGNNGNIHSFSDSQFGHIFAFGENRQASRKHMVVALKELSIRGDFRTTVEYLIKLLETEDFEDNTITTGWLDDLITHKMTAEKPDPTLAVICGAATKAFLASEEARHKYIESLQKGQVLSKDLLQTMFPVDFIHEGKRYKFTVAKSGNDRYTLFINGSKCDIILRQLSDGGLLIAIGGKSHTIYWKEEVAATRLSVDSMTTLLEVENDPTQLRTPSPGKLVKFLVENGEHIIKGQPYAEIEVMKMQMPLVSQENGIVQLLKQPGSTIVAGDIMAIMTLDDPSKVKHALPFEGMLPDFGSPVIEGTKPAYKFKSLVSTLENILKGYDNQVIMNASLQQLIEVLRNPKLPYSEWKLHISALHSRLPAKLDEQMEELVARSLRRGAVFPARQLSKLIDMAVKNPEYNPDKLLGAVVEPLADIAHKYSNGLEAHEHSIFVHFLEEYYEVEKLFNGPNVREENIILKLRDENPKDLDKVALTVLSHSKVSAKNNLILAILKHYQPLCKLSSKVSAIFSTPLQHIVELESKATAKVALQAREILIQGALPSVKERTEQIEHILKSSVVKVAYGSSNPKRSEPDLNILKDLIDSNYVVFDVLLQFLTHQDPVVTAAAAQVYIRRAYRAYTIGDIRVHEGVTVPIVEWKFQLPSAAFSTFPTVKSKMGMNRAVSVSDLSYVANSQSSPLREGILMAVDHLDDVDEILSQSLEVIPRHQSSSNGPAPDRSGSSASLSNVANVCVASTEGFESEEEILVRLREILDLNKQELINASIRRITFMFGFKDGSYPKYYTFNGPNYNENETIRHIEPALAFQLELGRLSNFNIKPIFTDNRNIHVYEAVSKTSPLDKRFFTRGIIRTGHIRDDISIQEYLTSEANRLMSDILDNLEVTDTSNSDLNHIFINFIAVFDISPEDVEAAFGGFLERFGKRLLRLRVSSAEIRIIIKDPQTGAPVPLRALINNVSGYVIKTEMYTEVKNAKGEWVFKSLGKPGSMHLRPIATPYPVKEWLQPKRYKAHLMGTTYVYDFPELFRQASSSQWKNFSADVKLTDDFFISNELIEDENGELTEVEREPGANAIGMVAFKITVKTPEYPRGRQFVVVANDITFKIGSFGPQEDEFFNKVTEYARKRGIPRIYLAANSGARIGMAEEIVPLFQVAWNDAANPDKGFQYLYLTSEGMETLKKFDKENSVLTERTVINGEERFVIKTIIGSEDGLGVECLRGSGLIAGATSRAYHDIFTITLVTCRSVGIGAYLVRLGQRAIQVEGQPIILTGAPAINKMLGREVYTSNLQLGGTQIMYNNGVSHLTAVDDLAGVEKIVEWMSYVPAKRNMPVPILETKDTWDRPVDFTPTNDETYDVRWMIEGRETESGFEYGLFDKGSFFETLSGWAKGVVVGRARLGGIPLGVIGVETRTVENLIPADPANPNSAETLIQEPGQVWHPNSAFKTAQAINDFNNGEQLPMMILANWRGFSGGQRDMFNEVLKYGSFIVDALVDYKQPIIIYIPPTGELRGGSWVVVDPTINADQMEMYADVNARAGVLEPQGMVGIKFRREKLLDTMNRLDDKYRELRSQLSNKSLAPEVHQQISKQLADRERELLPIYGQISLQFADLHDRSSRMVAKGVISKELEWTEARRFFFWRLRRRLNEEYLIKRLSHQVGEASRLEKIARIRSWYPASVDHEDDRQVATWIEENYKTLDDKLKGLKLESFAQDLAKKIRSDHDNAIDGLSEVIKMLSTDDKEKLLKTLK

## COc1ccc(F)cc1[C@H](Cn1c(=O)n(C(C)(C)C(=O)NC(C)C)c(=O)c2c(C)c(-n3nccn3)sc21)OCCS(C)(=O)=O [Compound I-248]
[1]
  IC50: 0.3 to 1 nM
[2]; [14]
  IC90: 10 µg/mL (≈ 15.4 µM)
[3]; [15]
  IC90: 0.4 µg/mL (≈ 0.615 µM)
[4]; [16]
  IC90: 2 µg/mL (≈ 3.07 µM)
[5]
  IC90: 0.4 µg/mL (≈ 0.615 µM)
[6]; [17]
  IC90: 2 µg/mL (≈ 3.07 µM)
[7]; [18]
  MIC: 1.01 to 2 µg/mL (≈ 1.55 to 3.07 µM)
[8]
  IC50: 10 to 40 nM
[9]; [19]
  MIC: 1.01 to 2 µg/mL (≈ 1.55 to 3.07 µM)
[10]; [20]
  IC90: > 50 µg/mL
[11]; [21]
  IC90: 0.4 µg/mL (≈ 0.615 µM)
[12]; [22]
  IC90: 0.08 µg/mL (≈ 0.123 µM)
[13]; [23]
  MIC: 1.01 to 2 µg/mL (≈ 1.55 to 3.07 µM)

## COc1ccccc1[C@H](O)Cn1c(=O)n(C(C)(C)C(=O)NC(C)C)c(=O)c2c(C)c(-n3nccn3)sc21 [Compound I-251]
[1]
  IC50: 1 to 5 nM
[2]; [14]
  IC90: > 50 µg/mL
[3]; [15]
  IC90: > 50 µg/mL
[4]; [16]
  IC90: 2 µg/mL (≈ 3.8 µM)
[5]
  IC90: 2 µg/mL (≈ 3.8 µM)
[6]; [17]
  IC90: 10 µg/mL (≈ 19 µM)
[7]; [18]
  MIC: 0.25 to 1 µg/mL (≈ 0.475 to 1.9 µM)
[8]
  IC50: 10 to 40 nM
[9]; [19]
  MIC: 0.25 to 1 µg/mL (≈ 0.475 to 1.9 µM)
[10]; [20]
  IC90: > 50 µg/mL
[11]; [21]
  IC90: > 50 µg/mL
[12]; [22]
  IC90: 2 µg/mL (≈ 3.8 µM)
[13]; [23]
  MIC: 1.01 to 2 µg/mL (≈ 1.92 to 3.8 µM)

## CCNC(=O)[C@@H](C)n1c(=O)c2c(C)c(-n3nccn3)sc2n(C[C@H](OCCC#N)c2cc(F)ccc2OC)c1=O [Compound I-252]
[1]
  IC50: 1 to 5 nM
[2]; [24]
  IC90: 10 µg/mL (≈ 17.6 µM)
[3]; [25]
  IC90: 0.08 µg/mL (≈ 0.14 µM)
[4]; [26]
  IC90: 0.4 µg/mL (≈ 0.702 µM)
[5]; [27]
  IC90: 0.08 µg/mL (≈ 0.14 µM)
[6]; [28]
  IC90: 2 µg/mL (≈ 3.51 µM)
[7]; [29]
  MIC: 2.01 to 4 µg/mL (≈ 3.53 to 7.02 µM)
[8]
  IC50: 1 to 5 nM
[9]; [30]
  MIC: > 4.01 µg/mL
[10]; [31]
  IC90: > 50 µg/mL
[11]; [32]
  IC90: 0.4 µg/mL (≈ 0.702 µM)
[12]; [33]
  IC90: 0.08 µg/mL (≈ 0.14 µM)
[13]; [34]
  MIC: > 4.01 µg/mL

## CCNC(=O)[C@H](C)n1c(=O)c2c(C)c(-n3nccn3)sc2n(C[C@H](OCCC#N)c2cc(F)ccc2OC)c1=O [Compound I-253]
[1]
  IC50: 0.3 to 1 nM
[2]; [24]
  IC90: > 50 µg/mL
[3]; [25]
  IC90: 10 µg/mL (≈ 17.6 µM)
[4]; [26]
  IC90: 10 µg/mL (≈ 17.6 µM)
[5]; [27]
  IC90: 0.4 µg/mL (≈ 0.702 µM)
[6]; [28]
  IC90: 2 µg/mL (≈ 3.51 µM)
[7]; [29]
  MIC: 2.01 to 4 µg/mL (≈ 3.53 to 7.02 µM)
[8]
  IC50: 5 to 10 nM
[9]; [30]
  MIC: > 4.01 µg/mL
[10]; [31]
  IC90: > 50 µg/mL
[11]; [32]
  IC90: 10 µg/mL (≈ 17.6 µM)
[12]; [33]
  IC90: 2 µg/mL (≈ 3.51 µM)
[13]; [34]
  MIC: > 4.01 µg/mL

## CCNC(=O)C(C)(C)n1c(=O)c2c(C)c(-n3nccn3)sc2n(C[C@@H](O)c2cc(F)ccc2OC)c1=O [Compound I-254]
[1]
  IC50: 1 to 5 nM
[2]; [24]
  IC90: > 50 µg/mL
[3]; [25]
  IC90: > 50 µg/mL
[4]; [26]
  IC90: > 50 µg/mL
[5]; [27]
  IC90: 10 µg/mL (≈ 18.8 µM)
[6]; [28]
  IC90: > 50 µg/mL
[7]; [29]
  MIC: 2.01 to 4 µg/mL (≈ 3.79 to 7.54 µM)
[8]
  IC50: > 40 nM
[9]; [30]
  MIC: 2.01 to 4 µg/mL (≈ 3.79 to 7.54 µM)
[10]; [31]
  IC90: > 50 µg/mL
[11]; [32]
  IC90: > 50 µg/mL
[12]; [33]
  IC90: 2 µg/mL (≈ 3.77 µM)
[13]; [34]
  MIC: 2.01 to 4 µg/mL (≈ 3.79 to 7.54 µM)

## CCNC(=O)C(C)(C)n1c(=O)c2c(C)c(-n3nccn3)sc2n(C[C@H](O)c2cc(F)ccc2OC)c1=O [Compound I-255]
[1]
  IC50: 0.3 to 1 nM
[2]; [24]
  IC90: > 50 µg/mL
[3]; [25]
  IC90: 2 µg/mL (≈ 3.77 µM)
[4]; [26]
  IC90: 0.4 µg/mL (≈ 0.754 µM)
[5]; [27]
  IC90: 0.08 µg/mL (≈ 0.151 µM)
[6]; [28]
  IC90: 2 µg/mL (≈ 3.77 µM)
[7]; [29]
  MIC: 2.01 to 4 µg/mL (≈ 3.79 to 7.54 µM)
[8]
  IC50: 10 to 40 nM
[9]; [30]
  MIC: 2.01 to 4 µg/mL (≈ 3.79 to 7.54 µM)
[10]; [31]
  IC90: > 50 µg/mL
[11]; [32]
  IC90: 2 µg/mL (≈ 3.77 µM)
[12]; [33]
  IC90: 0.4 µg/mL (≈ 0.754 µM)
[13]; [34]
  MIC: 2.01 to 4 µg/mL (≈ 3.79 to 7.54 µM)
